According to patent publication US11179377B2, “Pharmaceutical compositions and uses thereof” (Embera NeuroTherapeutics, Inc., priority 2017, dated 2021):

Legend:
Type in all cases: physicochemical
[1] = Metyrapone Assay and Related Substances after 4 Weeks of Storage (HPLC Test Method B); conditions: for Assay at 1 mo (metyrapone) / Total imps at 1 mo: metyrapone method (Test Method B)
Protocol: (§1) Binary mixtures of the drug substances were prepared, stressed at 40° C./75% RH for 4 weeks and evaluated by the assay and related substances method using both analytical methods. Prototype blends containing oxazepam and metyrapone were prepared that would represent potential approaches for a single unit combination tablet with (i) one prototype using dry granulation and (ii) one prototype using wet granulation. The blends were stressed at 25° C./60% RH and at 40° C./75% RH for 4 weeks and evaluated.
Accurately weigh samples into a 500 mL volumetric flask. Add approximately 1 to 2 mL of water to disintegrate. Add sample diluent, sonicate for 15 minutes, shake for 15 minutes, and then bring to volume with sample diluent and mix well. Filter this solution and dilute to an appropriate sample concentration with sample diluent, and analyze by HPLC using the chromatographic conditions below.
(§2) The compatibility between the two compounds was evaluated as (i) neat API mixtures (1:15 and 1:30 ratios of oxazepam:metyrapone) and (ii) in prototype matrices that are representative of final forms if a simple combination tablet were to be manufactured (see Table 16). These prototypes have metyrapone and oxazepam ratios representative of a 720 mg metyrapone/24 mg oxazepam dose.
(§3) One prototype was prepared using a dry granulation process while the other was prepared using a wet granulation process. In both prototypes, metyrapone was formulated intragranularly while oxazepam included extragranularly. The excipients used in each case were similar to those used on oxazepam and metyrapone minitabs formulations. The dry granulation process was facilitated through roller compaction of the intragranular components.
(§4) Samples of API mixtures and prototype tablets (created from slugs compressed on a Carver press) were stored at 25° C./60% RH and at 40° C./75% RH in glass vials with screw caps. Samples were removed from storage after 4 weeks and analyzed for metyrapone, oxazepam and related substances using both HPLS analytical methods (Test methods A and B). Different dilutions were required to appropriately analyze for metyrapone and oxazepam from the mixtures due to the large amount of metyrapone relative to oxazepam.
(§5) The compatibility of metyrapone and oxazepam was evaluated by comparing potency and impurity profiles of the following samples: • 1. Neat oxazepam API stored for 4 weeks at 25° C./60% RH and 40° C./75% RH. • 2. Neat metyrapone API stored for 4 weeks at 25° C./60% RH and 40° C./75% RH. • 3. Binary mixtures of oxazepam and metyrapone APIs at 1:15 and 1:30 ratios stored for 4 weeks at 25° C./60% RH and 40° C./75% RH. • 4. Prototype blend prepared using the wet granulation approach (metyrapone—intragranular; oxazepam—extragranular) stored for 4 weeks at 25° C./60% RH and 40° C./75% RH. • 5. Prototype blend prepared using the dry granulation approach (roller compacted metyrapone—intragranular; oxazepam—extragranular) stored for 4 weeks at 25° C./60% RH and 40° C./75% RH.
(§6) For each active pharmaceutical component, the potency and impurity values of neat API were compared with those for the binary mixtures and prototypes. Since the methods are unable to distinguish impurities from the two actives, compatibility was assessed by the increase in total impurities and decrease in potency values of the actives. The results are shown in Table 17 for oxazepam and Table 18 for metyrapone. The % peak areas for API admixtures and prototypes are proportional to the ratio of the two actives in the corresponding samples.

[2] = Metyrapone-Oxazepam Compatibility Study, overall conclusions
Protocol: A study was conducted to assess the compatibility between oxazepam and metyrapone in a single pharmaceutical composition (e.g., single tablet unit containing both compounds).
as §1
The compatibility between the two compounds was evaluated as (i) neat API mixtures (1:15 and 1:30 ratios of oxazepam:metyrapone) and (ii) in prototype matrices that are representative of final forms if a simple combination tablet were to be manufactured (see Table 16). […]
as §4, with “Different dilutions were required to appropriately analyze for metyrapone and oxazepam from the mixtures due to the large amount of metyrapone relative to oxazepam.” left out

[3] = Oxazepam Assay and Related Substances after 4 Weeks of Storage (HPLC Test Method A); conditions: for Assay at 1 mo (oxazepam) / Total imps at 1 mo: oxazepam method (Test Method A)
Protocol: as §1
Accurately weigh samples into a volumetric flask. Add approximately 2 mL of water to disintegrate the samples. Add sample diluent, sonicate for 15 minutes, shake for 15 minutes, and then bring to volume with sample diluent and mix well. Filter the solution, dilute as needed with the sample diluent for analysis, and analyze by HPLC using the chromatographic conditions below.
as §2, §3, §4, §5, §6

[4] = 25 C. (25° C./60% RH), 4 weeks storage, Test Method B
[5] = 40 C. (40° C./75% RH), 4 weeks storage, Test Method B
[6] = 25 C. (25° C./60% RH), 4 weeks storage, Test Method A
[7] = 40 C. (40° C./75% RH), 4 weeks storage, Test Method A

In the case of `CC(C)(C(=O)c1cccnc1)c1cccnc1` [metyrapone neat, metyrapone], the “% Peak area, RRT 0.27” value [1, 4] was 0.14 % Peak area, the “% Peak area, RRT 0.48” value [1, 4] was 0.05 % Peak area and the “% Peak area, RRT 0.67” value [1, 4] was 0.01 % Peak area. For the same compound, the “% Peak area, RRT 1.00 * (Metyrapone)” value [1, 4] was 99.44 % Peak area, the “% Peak area, RRT 1.09” value [1, 4] was 0.07 % Peak area and the “Assay at 1 mo (metyrapone)” value ([1]; 25 C. (25° C./60% RH)) was 100.60%. The “Total imps at 1 mo” value ([1]; 25 C. (25° C./60% RH)) was 0.26%, the “% Peak area, RRT 0.27” value [1, 5] was 0.15 % Peak area and the “% Peak area, RRT 0.48” value [1, 5] was 0.06 % Peak area. For the same compound, the “% Peak area, RRT 1.00 * (Metyrapone)” value [1, 5] was 99.42 % Peak area, the “% Peak area, RRT 1.09” value [1, 5] was 0.09 % Peak area and the “Assay at 1 mo (metyrapone)” value ([1]; 40 C. (40° C./75% RH)) was 99.50%. The “Total imps at 1 mo” value ([1]; 40 C. (40° C./75% RH)) was 0.30% and the “impact of the incompatibility on metyrapone” value ([2]; 4 weeks storage combined with oxazepam) was “minimal”.

In the case of `O=C1Nc2ccc(Cl)cc2C(c2ccccc2)=NC1O` (centres unmarked) [oxazepam neat API, oxazepam], the “% Peak area, RRT 1.00 ** (Oxazepam)” value [3, 6] was 99.45 % Peak area, the “% Peak area, RRT 1.28” value [3, 6] was 0.25 % Peak area and the “% Peak area, RRT 1.333” value [3, 6] was 0.16 % Peak area. For the same compound, the “Assay at 1 mo (oxazepam)” value ([3]; 25 C. (25° C./60% RH)) was 95.00%, the “Total imps at 1 mo” value ([3]; 25 C. (25° C./60% RH)) was 0.41% and the “% Peak area, RRT 1.00 ** (Oxazepam)” value [3, 7] was 99.67 % Peak area. For the same compound, the “% Peak area, RRT 1.28” value [3, 7] was 0.15 % Peak area, the “% Peak area, RRT 1.329” value [3, 7] was 0.05 % Peak area and the “% Peak area, RRT 1.333” value [3, 7] was 0.08 % Peak area. For the same compound, the “Assay at 1 mo (oxazepam)” value ([3]; 40 C. (40° C./75% RH)) was 93.20%, the “Total imps at 1 mo” value ([3]; 40 C. (40° C./75% RH)) was 0.28% and the oxazepam degradation ([2]; in 4 weeks at 40° C./75% RH, combined with metyrapone (admixtures and prototypes)) was “up to 50%”.
